Data set [1] deals with HIV. The following applies: cited from earlier work.
For data set [2], the system named is MT-4 cells. As to the kind of experiment: Cytotoxicity evaluation in uninfected MT-4 cells. Format: cell-based.
For data set [3], the system named is HIV-2 (ROD). As to the kind of experiment: Anti-HIV activity in MT-4 cell cultures, HIV-2. Format: cell-based. To be noted: read-out: av. IC50, average, MT-4 cells.
Data set [4] deals with HIV-1 (IIIB) and HIV-2 (ROD) strains. Format: cell-based. The following applies: for IC50: read-out: IC50 values, text summary over HIV-1 (IIIB) and HIV-2 (ROD) strains.

Read-outs that look alike come from different tables or passages of the source.

In general, IC50 refers to the concentration needed to halve the response being measured. As to `c1cc(CN2CCCNCCNCCCNCC2)ccc1CN1CCCNCCNCCCNCC1` [AMD3100, xylylbicyclam], in data set [1] (read-out: IC50 against HIV, entry inhibitor drug against HIV), the IC50 is less than 0.1 µM.

As usually defined, the CC50 is the concentration giving 50% cytotoxicity. Take `O=S(=O)([O-])[O-].O=S(=O)([O-])[O-].[O]=[V+2].[O]=[V+2].c1cc(CN2CCCNCCNCCCNCC2)ccc1CN1CCCNCCNCCCNCC1` [Complex 3, oxovanadium(IV)-(xylylbicyclam) disulfate]: in data set [2], the CC50 is more than 151 µM. Besides, the IC50 in data set [3] was determined as 3.3 µM. In data set [4], the “antiviral (anti-HIV) activity in words” value is “highly active” and the IC50 lay in the range of 1 to 5 µM.

Regarding `[Cl-].[Cl-].[Cl-].[Cl-].[O]=[V+2].[O]=[V+2].c1cc(CN2CCCNCCNCCCNCC2)ccc1CN1CCCNCCNCCCNCC1` [Complex 4, oxovanadium(IV)-(xylylbicyclam) tetrachloride], the CC50 in data set [2] (read-out: av. CC50, average, uninfected MT-4 cells) is more than 161 µM. The same compound registered a CC50 in data set [2] (single determinations, reduces viability of uninfected MT-4 cells by 50%) of more than 161 µM. In addition, in data set [4], the “antiviral (anti-HIV) activity in words” value was “highly active” and the half-maximal inhibitory concentration (IC50) fell in the range of 0.1 to 0.3 µM.

On to Co(III)-cyclam, for which the “anti-HIV activity of metal cyclams in words” value in data set [1] is “inactive”.

As for Pd(II)-cyclam, the “anti-HIV activity of metal cyclams in words” value in data set [1] is “inactive”.

Take “oxovanadium(IV)-cyclam dichloride [Complex 2]”: in data set [4], the “antiviral (anti-HIV) activity in words” value was “inactive” and the IC50 was more than 360 µM.

Take “oxovanadium(IV)-cyclam sulfate [Complex 1]”: in data set [4], the “antiviral (anti-HIV) activity in words” value was “inactive” and the IC50 is more than 340 µM.

Source of the values: article PMC2818883 (Inorganic chemistry, 2010).
